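Five compound concentrations were applied to cells in 96-well plates for 48 hours; endpoints were derived by simple linear interpolation of the resulting dose-response curve. Definition used: TGI = concentration required for complete inhibition of growth.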
Columns and labels:
Assay in all cases: DTP human tumour cell line panel, 48 h
[1] = tested on: SF-539 CNS
[2] = tested on: HOP-62 NSCLC
[3] = tested on: OVCAR-5 ovarian
[4] = tested on: OVCAR-3 ovarian
[5] = tested on: ACHN renal
[6] = tested on: MDA-MB-435
[7] = tested on: COLO 205 colon
[8] = tested on: HCT-116 colon
[9] = tested on: RPMI-8226 leukemia
[10] = tested on: UO-31 renal
[11] = tested on: SR leukemia
[12] = tested on: SF-295 CNS
[13] = tested on: SK-MEL-5 melanoma
[14] = tested on: DU-145 prostate
[15] = tested on: HCT-15 colon
[16] = tested on: A549 NSCLC
[17] = tested on: NCI/ADR-RES ovarian
[18] = tested on: PC-3 prostate
[19] = tested on: K-562 leukemia
[20] = tested on: IGROV1 ovarian
[21] = tested on: MDA-MB-231 breast
[22] = tested on: HT29 colon
[23] = tested on: EKVX NSCLC
[24] = tested on: SNB-19 CNS
[25] = tested on: TK-10 renal
[26] = tested on: SK-MEL-28 melanoma
[27] = tested on: A498 renal
[28] = tested on: SW-620 colon
[29] = tested on: OVCAR-8 ovarian
[30] = tested on: SF-268 CNS
[31] = tested on: CAKI-1 renal
[32] = tested on: HL-60(TB) leukemia
[33] = tested on: MOLT-4 leukemia
[34] = tested on: UACC-257 melanoma
[35] = tested on: MDA-N
[36] = tested on: KM12 colon
[37] = tested on: UACC-62 melanoma
[38] = tested on: NCI-H23 lung
[39] = tested on: HOP-92 NSCLC
[40] = tested on: U251 CNS
[41] = tested on: HS 578T breast
[42] = tested on: SK-MEL-2 melanoma
[43] = tested on: SK-OV-3 ovarian
[44] = tested on: T-47D breast
[45] = tested on: MCF7 breast
[46] = tested on: 786-0 renal
[47] = tested on: BT-549 breast
[48] = tested on: LOX IMVI melanoma
[49] = tested on: NCI-H226 lung
[50] = tested on: CCRF-CEM leukemia
[51] = tested on: SNB-75 CNS
[52] = tested on: M14 melanoma
[53] = tested on: SN12C renal
[54] = tested on: NCI-H460 lung
[55] = tested on: OVCAR-4 ovarian
[56] = tested on: NCI-H522 lung
[57] = tested on: RXF 393 renal
[58] = tested on: MALME-3M melanoma
[59] = tested on: HCC-2998 colon

Measured: TGI

O=c1n(N=S(=O)(c2ccccc2)c2ccccc2)c(=O)n2n1C1C=CC2CC1
not listed: [55] | [56] | [57] | [58] | [59]
> 100 µM: all other assays above

CC1=CC(=O)C(=C(C)C)CC1
not listed: [1] | [7] | [9] | [27] | [28] | [39] | [42] | [59]
> 100 µM: all other assays above

O=P(O)(O)OC1OC(CO)C(O)C(O)C1O (centres undefined)
not listed: [1] | [7] | [18] | [33] | [49]
> 100 µM: all other assays above
